Results reported in patent US20230330118A1, “2-DEOXY-D-GLUCOSE FOR PREVENTION AND TREATMENT OF A VIRAL DISEASE, IN PARTICULAR OF COVID-19” (priority 2020, published 2023).
Read-outs that look alike come from different tables or passages of the source.

Tests used:
rhinovirus [1] = settings: Gualdoni et al. 2018; cited from earlier work
SARS-CoV-2 [2] = settings: Bojkova et al. 2020; cited from earlier work
[3] = test system: Human Bronchial Epithelial Cells (HBEpiC); assay: Cell viability (CellTiter 96 AQueous), short exposure; type: cell-based; settings: 15 minutes to 6 hours exposure
Experimental: (§1) Human Bronchial Epithelial Cells (HBEpiC) were obtained from Innoprot (Cat no. P10557, batch no. 7475) and cultured in Bronchial Epithelial Cell Medium (Innoprot, Cat no. P60151) supplemented with 0.2% gentamicin (Gibco, Life Technologies, USA, Cat. no. 15710-049) under standard cell culture conditions (5% CO2, 16% O2, 37° C.). HBEpiC at passage 2, were plated in Bronchial Epithelial Cell Medium at 10.0 thousand cells per well of a 96-well plate and left for 48 hours in an incubator. The plates were coated with collagen (Collagen I-cell surface coating kit, Innoprot, Cat no. P8188) prior to cell seeding. 2-deoxy-D-glucose (Sigma-Aldrich; Cat no. D8375) was added to the cells for 15 min, 30 min, 1 h, 2 h and 6 h.
Cells were exposed to the compound at the following concentrations of 2-deoxy-D-glucose in medium as a solvent: 200 mM; 100 mM; 50 mM; 25 mM; 12.5 mM; 6.25 mM.
In order to assess cell viability, medium containing 2-deoxy-D-glucose was removed, the fresh medium was added to the cells and CellTiter 96® AQueous Solution Assay (Promega) was used in accordance with the manufacturer's instructions, 20 μl of reagent was added per 100 μl of cell culture medium and cells were incubated at 5% CO2, 16% O2, 37° C. Absorbance was measured at 490 nm. The results obtained 1 hour after addition of the CellTiter reagent were analyzed in GraphPadPrism 5.01. […]

SARS-CoV-2 [4] = type: cell-based; settings: Vero E6
SARS-CoV-2 Spike Protein = assay: Western blot analysis of Spike protein glycosylation in human bronchial epithelial cells (HBEpiC) transduced with Spike lentiviral vectors; type: cell-based
SARS-CoV-2 [5] = type: cell-based
SARS-CoV-2 [6] = type: cell-based; settings: for TCID50/ml: Vero-E6, M.O.I 0.001
rhinovirus [7] = settings: Gualdoni et al. 2018; cited from earlier work; remark: listed apart in the source
[8] = 2-DG uptake measurement in lung tissue lysates of mice treated by inhalation; type: in vivo; settings: 7 days, 14 days
Experimental: The analysis involved six lung tissue sections of mice (both male and female) treated by inhalation with 2-DG at a concentration of 30 mM thrice a day for 24 hours, 7 days and two weeks. The tissues were weighed, suspended in 10 mM Tris-HCl lysis buffer (pH 8.0) and then subjected to homogenization with the use of homogenizer (MPW-302, Precision Mechanics). Each analyzed sample is described in table below:
The 2DG6P accumulation in cells was determined with the use of 2-Deoxyglucose (2-DG) Uptake Measurement Kit (Cat. No. CSR-OKP-PMG-K01TE; Cosmo Bio Co., LTD., Tokyo, Japan) according to the manufacturer's protocol.
1. Cell and tissue lysates were heat treated at 80° C. for 15 min and then centrifuged at 4° C., 15 000×g for 20 min.
2. The supernatants were transferred to new tubes and used as unknown samples for measurement method (point 5).
3. The 2DG6P standards were prepared by serial dilution of 1 mM 2DG6P in 1× Sample Diluent Buffer in the following ranges: 0; 0.3125; 0.625; 1.25; 2.5 and 5 μM.
4. 60 μL of Reagent Mix A (including NAD and low glucose-6-phosphate dehydrogenase (G6PDH)) were added to each well of 96-ell plate.
5. Then 2DG6P standard and unknown samples (20 μL) were added to each well and incubated for over 19 hours at room temperature.
6. […]
12. The optical density (OD) was read at 420 nm in every 2.5 min over a period of 30 min using a microplate reader preheated to 30° C.

[9] = test system: primary human bronchial epithelial cells; assay: Toxicity observed in PBEC during the 48 h antiviral incubation; type: cell-based; settings: 48 h incubation
Experimental: Day 2. Pre-treatment of PBEC cells in 48 wells plate with 2-DG prior to SARS-CoV-2 infection (2 h), and treatment with 2-DG for 48 h. SARS-CoV-2 was added at MOI 10-1 (MOI 0.1) and removed after 2 hours. Then, the cell culture was washed with PBS (3×0.5 mL) and 300 μL of medium with 2-DG from 50 mM to 0.39 mM, or medium with or without remdesivir for control, were added.

[10] = very high tolerance; cited from earlier work
[11] = test system: Human Bronchial Epithelial Cells (HBEpiC); assay: Cell viability (CellTiter 96 AQueous), long exposure; type: cell-based; settings: 48 h exposure (FIG. 5)
Experimental: as §1, with “passage 6,” for “passage 2,”, “at 9.0” for “at 10.0”, “for 48” for “for 15 min, 30 min, 1 h, 2 h and 6”
Cells were exposed to compounds at the following concentrations of 2-deoxy-D-glucose in medium as a solvent: 100 mM; 50 mM; 25 mM; 12.5 mM; 6.25 mM; 3.13 mM.
In order to asses cell viability, CellTiter 96® AQueous Solution Assay (Promega) was used in accordance with the manufacturer's instructions, 20 μl of reagent was added per 100 μl of cell culture medium and cells were incubated at 5% CO2, 16% O2, 37° C. Absorbance was measured at 490 nm. The results obtained 4 hours after addition of the CellTiter reagent were analyzed in GraphPadPrism 5.01. Data normalization and a nonlinear regression model were applied in order to determine the IC50.

O=CC[C@@H](O)[C@H](O)[C@H](O)CO [Example 2-DG, 2-deoxy-D-glucose]
infection and inflammation in a mouse model (rhinovirus [1]): inhibited infection and inflammation | SARS-CoV-2 replication (SARS-CoV-2 [2]): inhibition | cytotoxic effects on epithelial cells [3]: lack of cytotoxic effects | production of infectious SARS-CoV-2 particles (TCID50) (SARS-CoV-2 [4]; MOI 0.001, 0.39 to 50 mM, 24 h): strong decrease | effect on qPCR experiments (gene E copy numbers) compared with TCID50 (SARS-CoV-2 [4]; RT-qPCR): less pronounced | inhibition of spike glycosylation at 15 mM (SARS-CoV-2 Spike Protein; 15 mM, FIG. 2): total inhibition | glycosylation of spike protein from SARS-CoV-2 virus (SARS-CoV-2 Spike Protein; 25 mM or 15 mM 2-DG for 24 h, Western blot (FIG. 2)): inhibits glycosylation | concentration from which production of infectious SARS-CoV-2 particles decreases (SARS-CoV-2 [5]; PBEC, 2 h pretreatment, MOI 0.1, 48 h, TCID50): ≥ 0.78 mM | concentration above which effect is equivalent to the positive control remdesivir (SARS-CoV-2 [5]; PBEC, remdesivir 6 μM): above 0.78 mM | concentration from which production of infectious SARS-CoV-2 particles massively decreases (SARS-CoV-2 [5]; PBEC, treatment only conditions, MOI 0.1, 48 h, TCID50): ≥ 0.78 mM | SARS-CoV-2 virus production (SARS-CoV-2 [5]; primary human bronchial epithelial cells, 0.39 to 50 mM): dose dependent decrease | production of infectious SARS-CoV-2 particles (TCID50) (SARS-CoV-2 [6]; Vero E6, 2-DG added 8 hours after infection): strong decrease | TCID50/ml (SARS-CoV-2 [6]; Post-treatment (8 h.p.i), 2-DG 0.19 mM): 1.47E+07 TCID50/ml | TCID50/ml (SARS-CoV-2 [6]; Post-treatment (8 h.p.i), 2-DG 0.56 mM): 3.16E+07 TCID50/ml | TCID50/ml (SARS-CoV-2 [6]; Post-treatment (8 h.p.i), 2-DG 1.67 mM): 3.16E+06 TCID50/ml | TCID50/ml (SARS-CoV-2 [6]; Post-treatment (8 h.p.i), 2-DG 5 mM): 3.16E+05 TCID50/ml | TCID50/ml (SARS-CoV-2 [6]; Post-treatment (8 h.p.i), 2-DG 15 mM): 3.16E+04 TCID50/ml | TCID50/ml (SARS-CoV-2 [6]; Post-treatment (8 h.p.i), 2-DG 45 mM): 1.47E+01 TCID50/ml | TCID50/ml (SARS-CoV-2 [6]; Treatment (0 h.p.i), 2-DG 0.19 mM): 6.81E+06 TCID50/ml | TCID50/ml (SARS-CoV-2 [6]; Treatment (0 h.p.i), 2-DG 0.56 mM): 3.16E+07 TCID50/ml | TCID50/ml (SARS-CoV-2 [6]; Treatment (0 h.p.i), 2-DG 1.67 mM): 1.47E+07 TCID50/ml | TCID50/ml (SARS-CoV-2 [6]; Treatment (0 h.p.i), 2-DG 5 mM): 1.47E+05 TCID50/ml | TCID50/ml (SARS-CoV-2 [6]; Treatment (0 h.p.i), 2-DG 15 mM): 3.16E+02 TCID50/ml | TCID50/ml (SARS-CoV-2 [6]; Treatment (0 h.p.i), 2-DG 45 mM): 3.16E+00 TCID50/ml | rhinovirus replication in vitro (rhinovirus [7]): decreasing rhinovirus replication | course of 2-DG accumulation over treatment time ([8]; inhalation 24 h): plateau effect | 2-DG accumulation in the lungs ([8]; inhalation of 30 mM 2-DG thrice a day for 24 h, OD 420 nm (FIG. 10)): accumulated in the lungs | toxicity [9]: No toxicity | tolerated dose in clinical trials [10]: up to 63 mg per kg body weight and day | IC50 (cell viability) [11]: very high

CCC(CC)COC(=O)[C@H](C)N[P@](=O)(OC[C@H]1O[C@@](C#N)(c2ccc3c(N)ncnn23)[C@H](O)[C@@H]1O)Oc1ccccc1 [RMD, remdesivir]
TCID50/ml (SARS-CoV-2 [6]; Post-treatment (8 h.p.i), RMD 6 μM): 6.81E+03 TCID50/ml | TCID50/ml (SARS-CoV-2 [6]; Treatment (0 h.p.i), RMD 6 μM): 6.81E+00 TCID50/ml
